Data as given in patent publication US8933106B2, “2-(4-substituted phenylamino) polysubstituted pyridine compounds as inhibitors of non-nucleoside HIV reverse transcriptase, preparation methods and uses thereof” (Institute of Pharmacology and Toxicology Academy of …, priority 2008, dated 2015).
Converted amounts (≈) assume the structure as drawn.

Columns and labels:
Format in all cases: cell-based
[1] = tested on: HIV-1IIIB virus strain; assay: Anti-HIV activity test (MT-2 cell model), p24 antigen ELISA; settings: MT-2 cells; for EC50: Human immunodeficiency virus 1, MT2, HIV-1IIIB, 4th day, p24 antigen; for SI(CC50/EC50): ratio of toxicity CC50 value to activity EC50 value
Protocol: Please refer to the document (Jiang, S., et al. Antimicrob. Agents Chemother. 2004, 48, 4349-4359). In a 96-pore cell culture plate, 50 μl of different concentrations of compound solutions were respectively mixed with equal-volume of HIV-1IIIB virus strain (100 TCID50), and incubated at 37° C. for 30 min, and then 100 μl MT-2 cell (1×10^5/mL, RPIM 1640 culture medium containing 10% serum) was added, and mixed homogenously, followed by incubation at 37° C. overnight. On the second day, 150 μl of the supernatant was sucked out, and equal-volume of fresh culture medium was replenished, followed by further incubation at 37° C. for 3 days. On the 4th day, cytopathic effect (CPE) was recorded. Thereafter, 100 μl of culture supernatant was sucked out, virus particles were split using 5% Triton X-100, and p24 antigen therein was tested by using ELISA assay. Briefly, a ELISA plate was coated with HIVIG (2 μg/mL), and blocked with 1% fat-free milk, then a virus lysate was added therein, followed by incubation at 37° C. for 60 min. After fully washing the plate, anti-p24 monoclonal antibody-183-12H-5C, biotin-labeled goat antimouse antibody and […]-labeled horseradish peroxidase were added in sequence. Then, after developing with TMB, OD was tested at 450 nm. The 50% effective concentration (EC50) of the compound was calculated using CalcuSyn software.

[2] = Cytotoxicity test of the compound (MT-2 cells, XTT); settings: human, 4th day
Protocol: Please refer to the document (Jiang, S., et al. Antimicrob. Agents Chemother. 2004, 48, 4349-4359). In a 96-pore cell culture plate, 50 μl of different concentrations of compound solutions were respectively mixed with equal-volume of PBS, and incubated at 37° C. for 30 min, and then 100 μl MT-2 (or H9) cells (1×10^5/mL, RPIM 1640 culture medium containing 10% serum) was added, and mixed homogenously, followed by incubation at 37° C. overnight. On the second day, 150 μl of the supernatant was sucked out, and equal-volume of fresh culture medium was replenished, followed by further incubation at 37° C. for 3 days. On the 4th day, 50 μl of a XTT solution (1 mg/mL) containing PMS as freshly prepared was added. After 4 h, OD at 450 nm was tested. The 50% cytotoxicity concentration (CC50) of the compound was calculated using CalcuSyn software.

[3] = tested on: HIV virus (IIIB); assay: Anti-HIV activity test (H9 cell model), P24 antigen ELISA; settings: for SI(CC50/EC50): H9 cells, ratio of toxicity CC50 value to activity EC50 value; for EC50: Human immunodeficiency virus 1, 96 h, H9 cells infected with HIV (IIIB), 4 days, P24 antigen
Protocol: (§1) Please refer to the document (J. Med. Chem. 2004, 47, 756-760). Lymphocytes H9 were cultivated in culture medium 1640, under the conditions of 5% CO2, 37° C. The test compound was initially dissolved in DMSO, and then diluted with culture medium to conventional screening concentrations: 100, 20, 4, 0.8 μg/mL. The cultivated H9 cells were divided into two portions, one of which was infected with HIV virus (IIIB) (m.i.o. 0.1-0.01 infectious Units/cell), and used for the determination of activity. Another portion of the cells, in which no virus, but merely culture medium was added, was used for the determination of toxicity. After having been cultivated under completely the same conditions (37° C., 5% CO2) for 4 h, the two portions of cells were washed with fresh culture medium for 3 times, and then respectively added to different concentrations of test samples as formulated or to blank culture medium (the latter is positive infection control or negative drug control), while using AZT as positive drug control. All of these cells were cultivated under the conditions of 5% CO2, 37° C. for 4 days. On the 4th day, the cell membranes of the cells infected with virus were firstly removed, and the cytosol was tested by using P24 antigen ELISA assay to determine the activity of the samples, which was expressed as EC50. EC50 meant an effective concentration at which 50% of virus replication was inhibited. The portion of cells in which no virus was added was tested by using cytometry to determine the toxicity of the samples, which was expressed as CC50. CC50 meant a concentration at which 50% of living cells were killed.

[4] = Toxicity in uninfected H9 cells; settings: human, uninfected H9 lymphocytes, no virus
Protocol: as §1, with “All of these cells were cultivated under the conditions of 5% CO2, 37° C. for 4 days.” left out, “EC50 meant an effective concentration at which 50% of virus replication was inhibited.” left out, “CC50 meant a concentration at which 50% of living cells were killed.” left out

EC50 [1] [µg/mL] | EC50 [3] [µg/mL] | SMILES | SI(CC50/EC50) [1] | CC50 at 4 days [2] [µg/mL] | SI(CC50/EC50) [3] | CC50 at 4 days [4] [µg/mL]
0.52 (≈ 1.18 µM) | < 0.025 | Cc1cc(Br)cc(C)c1Oc1ccc([N+](=O)[O-])c(Nc2ccc(C#N)cc2)n1 [Compound I-1, 2-(4-cyanophenylamino)-6-(2,6-dimethyl-4-bromophenoxy)-3-nitropyridine] | 62 | 32.2 (≈ 73.4 µM) | >774 | 19.4 (≈ 44.1 µM)
0.052 (≈ 0.135 µM) | 0.0025 (≈ 0.00649 µM) | Cc1cc(C#N)cc(C)c1Oc1ccc([N+](=O)[O-])c(Nc2ccc(C#N)cc2)n1 [Compound I-2, 2-(4-cyanophenylamino)-6-(2,6-dimethyl-4-cyanophenoxy)-3-nitropyridine] | 371 | 19.3 (≈ 50.1 µM) | >10,000 | > 25
